{"source": "paper PMC8231113", "about": "“Protein Secondary Structure Affects Glycan Clustering in Native Mass Spectrometry” (Life, 2021)", "origin": "cited, not measured here", "key": {"[1]": {"biological_target": "wildtype GII.4 Saga P dimer", "conditions": "read-out: KD, result from NMR; cited from earlier work"}, "[2]": {"tested_on": "deamidated GII.4 Saga P dimer", "design": "method as in PMID 30899001, PMID 30071731", "conditions": "NMR and HDX MS; cited from earlier work"}, "hNoV P dimers": {"tested_on": "hNoV P dimers", "design": "method as in PMID 22170811, PMID 30899001", "conditions": "cited from earlier work"}}, "data": [{"smiles": "C[C@@H]1O[C@@H](O[C@H]2C(O)O[C@H](CO)[C@H](O)[C@@H]2O[C@H]2O[C@H](CO)[C@H](O)[C@H](O)[C@H]2O)[C@@H](O)[C@H](O)[C@@H]1O", "note": "(some centres unmarked) [B trisaccharide]", "values": [{"measurement": "Kd", "setting": "[1]", "value": 6.7, "unit": "mM"}, {"measurement": "reduction of glycan binding affinity of deamidated P dimer compared to the wildtype", "setting": "[2]", "value": "roughly by an order of magnitude"}]}, {"smiles": "O=C[C@@H](O)[C@H](O)[C@H](O)[C@@H](O)CO", "note": "[L-galactose]", "values": [{"measurement": "binding to hNoV", "setting": "hNoV P dimers", "value": "known not to bind"}]}, {"smiles": "C[C@H](O)[C@@H](O)[C@@H](O)[C@H](O)C=O", "note": "[fucose]", "values": [{"measurement": "Kd", "setting": "[1]", "value": 22, "unit": "mM"}, {"measurement": "reduction of glycan binding affinity of deamidated P dimer compared to the wildtype", "setting": "[2]", "value": "roughly by an order of magnitude"}]}]}
